PMC7048787, “MCL1 binding to the reverse BH3 motif of P18INK4C couples cell survival to cell proliferation” (Cell Death & Disease, 2020)
One block for each molecule: values may come before it.

Key:
[1] = tested on: P18 protein in PC3 and WAC2 cells; experiment: Western blot of P18 protein in treated cells; format: cell-based, human; conditions: for P18 protein level: Western blot, PC3 or WAC2 cells, 4 h, 10 µM LeuP, 30 µM BTZ or 10 µM LeuP + 30 µM BTZ (Fig. 5), BTZ 10, 20 or 30 µM in PC-3 (Fig. S4), N = 3
Protocol: (§1) Whole-cell lysates were prepared by lysing cells on ice with 1× RIPA buffer (Boston BioProducts): 50 mM Tris-HCl pH 7.4, 150 mM NaCl, 1% NP40, 0.5% sodium deoxycholate and water (rest) supplemented with protease inhibitors (1 mM AEBSF, 0.8 μM aprotinin, 0.05 mM bestatin, 0.015 mM E-64, 0.02 mM leupeptin, 0.01 mM pepstatin A). Protein lysates were resolved by sodium dodecyl sulfate–polyacrylamide gel electrophoresis and transferred to polyvinylidene fluoride membrane in a wet transfer system for 1 h at 100 V. Membranes were incubated with anti-MCL1 Abs (D2W9E and D35A5, Cell Signaling), anti-BAX Abs (D2E11, Cell Signaling), anti-P18 Abs, DCS-118 from Cell Signaling, anti-β-actin Abs, PA1–21167, from Pierce (Rockford, IL, USA), and anti-CDK6 Ab, (C-21): sc-177 from Santa Cruz at a dilution of 1:1000, at 4 °C overnight. HRP-conjugated secondary Abs were used for detection using ECL2 reagent (Pierce). Immunoblots were visualized on Bio-Rad ChemiDoc MP imaging system.
Fig. 5 MCL1 impact on P18 degradation. Western blot of DMSO control (0.3%), 10 µM leupeptin (LeuP), 10 µM LeuP + 30µM bortezomib (BTZ), or 30 µM BTZ treated (a) PC3 cells or (b) WAC2 cells for 4 h. Quantification of band intensity shown below blot. All data are presented as mean ± S.D., N = 3. The statistical significance was determined by unpaired Student t-test where […].
Figure S4. Bortezomib inversely impacts MCL1 and P18. Western blot of bortezomib treated PC-3 cells (10, 20, or 30 uM) for 4 hours. Quantification of band intensity shown below blot. All data are presented as mean ± S.D., N=3. The statistical significance was determined by unpaired Student t-test where *P<0.05; **P<0.01; ***P<0.001.

[2] = tested on: MCL1 protein in PC3 and WAC2 cells; experiment: Western blot of MCL1 protein in treated cells; format: cell-based, human; conditions: PC3 or WAC2 cells, 4 h, 10 µM LeuP, 30 µM BTZ or 10 µM LeuP + 30 µM BTZ (Fig. 5), BTZ 10, 20 or 30 µM in PC-3 (Fig. S4), N = 3
Protocol: as §1
Fig. 5 MCL1 impact on P18 degradation. […] Quantification of band intensity shown below blot. […] The statistical significance was determined by unpaired Student t-test where […].
Figure S4. […] Quantification of band intensity shown below blot. […] The statistical significance was determined by unpaired Student t-test where *P<0.05; **P<0.01; ***P<0.001.

[3] = target: T1, P18 protein (human P18INK4C residues 1-168), recombinant (human, UniProt P42773 1-168); experiment: pull-down; in vitro pulldown of recombinant P18, P16, truncated and chimeric proteins (IP) with recombinant MCL1 (IB); conditions: both partners purified
T1 construct: Human P18 (P18INK4C, CDKN2C), residues 1-168, called full-length P18 protein in the results; The purification of this protein is not described; only that of His6-MCL1 is; also called CDKN2C; full-length P18 protein; source: E. coli BL21(DE3), recombinant
T1 sequence (looked up): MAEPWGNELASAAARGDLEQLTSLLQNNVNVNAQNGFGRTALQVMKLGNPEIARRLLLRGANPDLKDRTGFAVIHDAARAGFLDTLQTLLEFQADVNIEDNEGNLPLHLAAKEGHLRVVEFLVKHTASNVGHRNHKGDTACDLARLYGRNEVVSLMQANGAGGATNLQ

Molecule: CC(C)C[C@H](NC(=O)[C@H](Cc1ccccc1)NC(=O)c1cnccn1)B(O)O [bortezomib]
P18 protein level [1]: decrease in P18 protein | effect of bortezomib on MCL1-induced loss of P18 protein ([1]; proteasome inhibitor bortezomib, Fig. 5 and Fig. S4): does not rescue this effect | MCL1 protein level [2]: increase in MCL1 protein

Molecule: CC(=O)N[C@@H](CC(C)C)C(=O)N[C@@H](CC(C)C)C(=O)N[C@H](C=O)CCCNC(=N)N [leupeptin]
P18 protein level [1]: marginal to no impact | MCL1 protein level [2]: marginal to no impact

binding result [3]: binds
B1: His6-MCL1 (human MCL1 residues 163-326) (domain or fragment, UniProt Q07820 163-326, looked up)
chain: TPPPAEEEEDELYRQSLEIISRYLREQATGAKDTKPMGRSGATSRKALETLRRVGDGVQRNHETAFQGMLRKLDIKNEDDVKSLSRVMIHVFSDGVTNWGRIVTLISFGAFVAKHLKTINQESCIEPLAESITDVLVRTKRDWLVKQRGWDGFVEFFHVEDLEG
notes: Named His6-MCL1 in the FPA; called rMCL1 in the pull-downs; also called His-MCL1; recombinant MCL1; source: E. coli BL21(DE3), purified (nickel column, gel filtration); not shown: His6, N-terminal, kept
